From ChEMBL document CHEMBL1795245, “Pyrazoline based MAO inhibitors: synthesis, biological evaluation and SAR studies” (Bioorg Med Chem Lett, 2011)

Tests used:
[1] = target: T1, Amine oxidase [flavin-containing] A (Homo sapiens, UniProt P21397); experiment: Inhibition of human MAO-A expressed in BTI insect cells using p-tyramine as substrate after 60 mins
T1 sequence (P21397 whole entry): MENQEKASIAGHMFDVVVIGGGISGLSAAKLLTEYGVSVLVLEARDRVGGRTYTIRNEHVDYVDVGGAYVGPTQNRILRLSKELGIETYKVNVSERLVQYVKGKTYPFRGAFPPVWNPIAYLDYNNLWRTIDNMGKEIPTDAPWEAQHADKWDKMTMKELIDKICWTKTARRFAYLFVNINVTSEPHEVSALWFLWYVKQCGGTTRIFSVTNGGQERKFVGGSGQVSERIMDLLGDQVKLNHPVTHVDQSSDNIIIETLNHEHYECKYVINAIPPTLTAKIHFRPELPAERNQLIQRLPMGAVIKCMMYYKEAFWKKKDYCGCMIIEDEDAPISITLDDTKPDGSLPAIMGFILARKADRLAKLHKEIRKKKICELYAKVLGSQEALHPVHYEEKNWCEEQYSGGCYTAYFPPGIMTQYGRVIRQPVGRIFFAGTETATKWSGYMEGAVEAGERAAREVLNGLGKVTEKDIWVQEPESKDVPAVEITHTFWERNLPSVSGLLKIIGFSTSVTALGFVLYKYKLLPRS

[2] = target: T2, Amine oxidase [flavin-containing] B (Homo sapiens, UniProt P27338); experiment: Inhibition of human MAO-B expressed in BTI insect cells using p-tyramine as substrate after 60 mins; format: cell-based
T2 sequence (P27338 whole entry): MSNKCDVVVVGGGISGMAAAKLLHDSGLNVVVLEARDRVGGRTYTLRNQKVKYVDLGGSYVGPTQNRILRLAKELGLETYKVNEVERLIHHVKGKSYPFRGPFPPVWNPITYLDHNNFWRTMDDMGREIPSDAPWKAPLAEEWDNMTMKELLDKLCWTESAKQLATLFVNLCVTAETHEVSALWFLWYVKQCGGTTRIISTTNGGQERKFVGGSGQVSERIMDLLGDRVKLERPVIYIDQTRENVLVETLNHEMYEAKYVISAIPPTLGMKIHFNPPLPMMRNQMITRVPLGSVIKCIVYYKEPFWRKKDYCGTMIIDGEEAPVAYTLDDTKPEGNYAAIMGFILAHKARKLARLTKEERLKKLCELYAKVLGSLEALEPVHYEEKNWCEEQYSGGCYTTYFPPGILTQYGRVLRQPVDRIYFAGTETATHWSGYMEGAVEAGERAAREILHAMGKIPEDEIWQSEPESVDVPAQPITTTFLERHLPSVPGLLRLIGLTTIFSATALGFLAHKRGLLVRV

[3] = organism: Homo sapiens; experiment: Selectivity index, ratio of Ki for human MAO-A to Ki for human MAO-B expressed in BTI insect cells
[4] = target: T1, Amine oxidase [flavin-containing] A; experiment: Reversible inhibition of human MAO-A expressed in BTI insect cells using p-tyramine as substrate after 60 mins; conditions: 1 h
[5] = target: T1, Amine oxidase [flavin-containing] A; experiment: Competitive inhibition of human MAO-A expressed in BTI insect cells using p-tyramine as substrate after 60 mins; conditions: 1 h

SMILES	Ki [1] [nM]	Ki [2] [µM]	Ratio Ki [3]	inhibition (INH) [4]	inhibition (INH) [5]
COc1cccc(NC(=S)N2N=C(c3ccccc3)CC2c2ccccc2O)c1 (centres undefined)	100	979	0.000102	Active	Active
O=C(NCCN1CCOCC1)c1ccc(Cl)cc1 [MOCLOBEMIDE]				Active	Active
NC(=O)N1N=C(c2ccccc2)CC1c1ccncc1 (centres undefined)	7000	4.79	1.46	Active	Active
COc1ccccc1NC(=S)N1N=C(c2ccccc2)CC1c1ccc(O)cc1 (centres undefined)	2150	2130	0.001	Active	Active
Cc1ccc(NC(=S)N2N=C(c3ccccc3)CC2c2ccccc2O)cc1 (centres undefined)	290	69.9	0.004	Active	Active
COc1cccc(NC(=S)N2N=C(c3ccccc3)CC2c2ccc(O)cc2)c1 (centres undefined)	350	355	0.000988	Active	Active
COc1ccccc1NC(=S)N1N=C(c2ccccc2)CC1c1ccccc1O (centres undefined)	310	60	0.005	Active	Active
NC(=O)N1N=C(c2ccccc2)CC1c1ccc(Cl)cc1 (centres undefined)	300	1.66	0.181	Active	Active
COc1ccc(NC(=S)N2N=C(c3ccccc3)CC2c2ccccc2O)cc1 (centres undefined)	170	60.2	0.001	Active	Active
Cc1ccc(NC(=S)N2N=C(c3ccccc3)CC2c2ccc(O)cc2)cc1 (centres undefined)	360	300	0.001	Active	Active
Cc1cccc(NC(=S)N2N=C(c3ccccc3)CC2c2ccccc2O)c1 (centres undefined)	300	250	0.001	Active	Active
COc1ccc(C2CC(c3ccccc3)=NN2C(N)=O)cc1 (centres undefined)	980	1.88	0.521	Active	Active
C#CCN(C)[C@H](C)Cc1ccccc1 [SELEGILINE]				Active	Active
Cc1cccc(NC(=S)N2N=C(c3ccccc3)CC2c2ccc(O)cc2)c1 (centres undefined)	130	256	0.000509	Active	Active
Cc1ccccc1NC(=S)N1N=C(c2ccccc2)CC1c1ccc(O)cc1 (centres undefined)	310	309	0.001	Active	Active
Cc1ccc(C2CC(c3ccccc3)=NN2C(=N)N)cc1 (centres undefined)	400	4.11	0.099	Active	Active
N=C(N)N1N=C(c2ccccc2)CC1c1ccncc1 (centres undefined)	670	4.8	0.14	Active	Active
COc1ccc(NC(=S)N2N=C(c3ccccc3)CC2c2ccc(O)cc2)cc1 (centres undefined)	90	401	0.000226	Active	Active
NC(=S)N1N=C(c2ccccc2)CC1c1ccncc1 (centres undefined)	456	4	0.114	Active	Active
N=C(N)N1N=C(c2ccccc2)CC1c1ccc(Cl)cc1 (centres undefined)	150	4.22	0.035	Active	Active
Cc1ccccc1NC(=S)N1N=C(c2ccccc2)CC1c1ccccc1O (centres undefined)	250	22	0.001	Active	Active
Cc1ccc(C2CC(c3ccccc3)=NN2C(N)=O)cc1 (centres undefined)	490	3.2	0.153	Active	Active
